Results reported in patent US10562850B2, “Human plasma kallikrein inhibitors” (priority 2015, dated 2020).

Tests used:
[1] = tested on: patients with hereditary angioedema (HAE); conditions: cited from earlier work
[2] = tested on: animal model of ischemic stroke; conditions: cited from earlier work
rat models of arthritis = conditions: cited from earlier work
human plasma kallikrein = human plasma kallikrein (Homo sapiens (Human), UniProt P03952); assay: Plasma Kallikrein Activity Assay (chromogenic substrate S2302); type: biochemical; conditions: 2 nM kallikrein, 80 μM S2302, 30° C., pH 7.8; Cheng-Prusoff
In short: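 2 nM human plasma kallikrein incubated at 30° C with 80 μM S2302 and increasing compound concentrations in 50 mM Tris-HCl pH 7.8, 200 mM NaCl, 2.5 mM CaCl2. Activity read as absorbance change at 405 nm; four-parameter logistic fit, Ki by Cheng-Prusoff.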

[3] = tested on: mouse model of middle cerebral artery occlusion (MCAO); conditions: cited from earlier work
sepsis patients = conditions: cited from earlier work

Sequence of human plasma kallikrein (P03952 391-638): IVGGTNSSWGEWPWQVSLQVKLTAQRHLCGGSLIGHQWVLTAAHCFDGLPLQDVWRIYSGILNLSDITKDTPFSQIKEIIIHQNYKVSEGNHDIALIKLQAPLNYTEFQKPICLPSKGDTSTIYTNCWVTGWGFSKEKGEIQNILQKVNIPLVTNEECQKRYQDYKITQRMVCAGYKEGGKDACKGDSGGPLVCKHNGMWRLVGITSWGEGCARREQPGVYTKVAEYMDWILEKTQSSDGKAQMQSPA
Sequence of human plasma kallikrein (P03952 20-390 partner): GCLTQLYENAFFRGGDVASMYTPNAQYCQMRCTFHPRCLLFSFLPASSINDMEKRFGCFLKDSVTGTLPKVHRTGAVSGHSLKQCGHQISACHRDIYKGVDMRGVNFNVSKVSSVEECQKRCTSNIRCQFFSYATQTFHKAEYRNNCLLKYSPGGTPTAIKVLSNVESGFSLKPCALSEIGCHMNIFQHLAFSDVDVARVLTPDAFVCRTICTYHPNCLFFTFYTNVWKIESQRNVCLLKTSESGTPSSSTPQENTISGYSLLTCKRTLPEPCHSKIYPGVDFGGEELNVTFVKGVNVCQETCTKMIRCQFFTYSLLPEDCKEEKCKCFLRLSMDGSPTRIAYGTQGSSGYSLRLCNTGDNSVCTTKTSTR

ecallantide [DX-88]
edema in patients with hereditary angioedema (HAE) [1]: alleviates edema
brain edema, infarct volume, and neurological deficits [2]: reduced brain edema, infarct volume, and neurological deficits

Cl.NCC1CCC(C(=O)N[C@@H](Cc2ccccc2)C(=O)Nc2ccc(CC(=O)O)cc2)CC1 (stereo partly shown) [PKSI-527]
joint swelling (rat models of arthritis): reduce joint swelling

NC(N)=NCCC[C@@H](N)C(=O)N[C@@H](CCCN=C(N)N)C(=O)N1CCC[C@H]1C(=O)N1C[C@H](O)C[C@H]1C(=O)NCC(=O)N[C@@H](Cc1cccs1)C(=O)N[C@@H](CO)C(=O)N1Cc2ccccc2C[C@@H]1C(=O)N1[C@H](C(=O)N[C@@H](CCCN=C(N)N)C(=O)O)C[C@@H]2CCCC[C@@H]21 [Icatibant]
treating HAE [1]: effective in treating HAE

CO[C@H]1C[C@@H](C(=O)Nc2cc(C(N)(CCC3CC3)c3cccc(C#N)c3)ccc2F)N(C(=O)Nc2ccc(Cl)cc2)C1 (stereo partly drawn) [Compound 11e, (2S,4S)-N2-(5-((−)-1-amino-1-(3-cyanophenyl)-3-cyclopropylpropyl)-2-fluorophenyl)-N1-(4-chlorophenyl)-4-methoxypyrrolidine-1,2-dicarboxamide]
Ki (human plasma kallikrein): > 100 nM

CNC(CCC1CC1)(c1ccnc(C)c1)c1ccc(F)c(NC(=O)[C@H]2C[C@@H](OC)CN2C(=O)Nc2ccc(Cl)cn2)c1 (stereo partly drawn) [Compound 79a, (2R,4R)-N1-(5-chloropyridin-2-yl)-N2-(5-((+)-3-cyclopropyl-1-(methylamino)-1-(2-methylpyridin-4-yl)propyl)-2-fluorophenyl)-4-methoxypyrrolidine-1,2-dicarboxamide]
Ki (human plasma kallikrein): < 50 nM

CC(C)(C)[S@@+]([O-])NC(CCC1CC1)(c1cccc(C#N)c1)c1ccc(F)c(NC(=O)[C@H]2C[C@H](N=[N+]=[N-])CN2C(=O)Nc2ccc(Cl)cc2)c1 (stereo partly drawn) [Compound 33b, (2R,4S)-4-azido-N1-(4-chlorophenyl)-N2-(5-((+)-1-(3-cyanophenyl)-3-cyclopropyl-1-((R)-1,1-dimethylethylsulfinamido)propyl)-2-fluorophenyl)pyrrolidine-1,2-dicarboxamide]
Ki (human plasma kallikrein): > 100 nM

CCO[C@@H]1C[C@H](C(=O)Nc2cc(C(N)(CCC3CC3)c3ccncc3)ccc2F)N(C(=O)Nc2ccc(Cl)cn2)C1 (stereo partly drawn) [Compound 51b, (2R,4R)-N2-(5-((+)-1-amino-3-cyclopropyl-1-(pyridin-4-yl)propyl)-2-fluorophenyl)-N1-(5-chloropyridin-2-yl)-4-ethoxypyrrolidine-1,2-dicarboxamide]
Ki (human plasma kallikrein): < 50 nM

N#Cc1cccc(C(N)(CCC2CC2)c2ccc(F)c(NC(=O)[C@H]3C[C@@H](O)CN3C(=O)Nc3cccc4ccccc34)c2)c1 (stereo partly drawn) [Compound 26b, (2R,4R)-N2-(5-((+)-1-amino-1-(3-cyanophenyl)-3-cyclopropylpropyl)-2-fluorophenyl)-4-hydroxy-N1-(naphthalen-1-yl)pyrrolidine-1,2-dicarboxamide]
Ki (human plasma kallikrein): > 100 nM

CO[C@]1(c2ccccc2)C[C@H](C(=O)Nc2cc(C(N)(CCC3CC3)c3ccccn3)ccc2F)N(C(=O)Nc2ccc(Cl)cn2)C1 (stereo partly drawn) [Compound 35a, (2R,4S)-N2-(5-((+)-1-amino-3-cyclopropyl-1-(pyridin-2-yl)propyl)-2-fluorophenyl)-N1-(5-chloropyridin-2-yl)-4-methoxy-4-phenylpyrrolidine-1,2-dicarboxamide]
Ki (human plasma kallikrein): 50 to 100 nM

NC(CCC1CC1)(c1ccc(F)c(NC(=O)[C@H]2C[C@@H](O)CN2C(=O)Nc2ccc(Cl)cn2)c1)c1ccccn1 (stereo partly drawn) [Compound 62c, (2R,4R)-N2-(5-((+)-1-amino-3-cyclopropyl-1-(pyridin-2-yl)propyl)-2-fluorophenyl)-N1-(5-chloropyridin-2-yl)-4-hydroxypyrrolidine-1,2-dicarboxamide]
Ki (human plasma kallikrein): < 50 nM

N#Cc1cccc(C(N)(CCC2CC2)c2ccc(F)c(NC(=O)[C@@H]3CCCN3C(=O)Nc3ccc(Cl)cc3)c2)c1 (stereo partly drawn) [Compound 8c, (S)-N2-(5-((−)-1-amino-1-(3-cyanophenyl)-3-cyclopropylpropyl)-2-fluorophenyl)-N1-(4-chlorophenyl)pyrrolidine-1,2-dicarboxamide]
Ki (human plasma kallikrein): > 100 nM

CO[C@@H]1C[C@H](C(=O)Nc2cc(C(CCC3CC3)N3CCCCC3=O)ccc2F)N(C(=O)Nc2ccc(Cl)cn2)C1 (stereo partly drawn) [Compound 44e, (2R,4R)-N1-(5-chloropyridin-2-yl)-N2-(5-((+)-3-cyclopropyl-1-(2-oxopiperidin-1-yl)propyl)-2-fluorophenyl)-4-methoxypyrrolidine-1,2-dicarboxamide]
Ki (human plasma kallikrein): > 100 nM

NC(CCC1CC1)(c1ccc(F)c(NC(=O)[C@H]2C[C@](O)(c3ccccc3)CN2C(=O)Nc2ccc(Cl)cc2)c1)c1ccccn1 (stereo partly drawn) [Compound 31i, (2R,4S)-N2-(5-((−)-1-amino-3-cyclopropyl-1-(pyridin-2-yl)propyl)-2-fluorophenyl)-N1-(4-chlorophenyl)-4-hydroxy-4-phenylpyrrolidine-1,2-dicarboxamide]
Ki (human plasma kallikrein): < 50 nM

N#Cc1cccc(C(N)(CCC2CC2)c2ccc(F)c(NC(=O)[C@H]3C[C@@H](O)CN3C(=O)Nc3ccc(Cl)cn3)c2)c1 (stereo partly drawn) [Compound 14h, (2R,4R)-N2-(5-(1-amino-1-(3-cyanophenyl)-3-cyclopropylpropyl)-2-fluorophenyl)-N1-(5-chloropyridin-2-yl)-4-hydroxypyrrolidine-1,2-dicarboxamide]
Ki (human plasma kallikrein): < 50 nM

CO[C@@H]1C[C@H](C(=O)Nc2cc(C(N)(CCC3CC3)c3ccncc3)ccc2F)N(C(=O)Nc2ccc(Cl)cc2)C1 (stereo partly drawn) [Compound 71a, (2R,4R)-N2-(5-((+)-1-amino-3-cyclopropyl-1-(pyridin-4-yl)propyl)-2-fluorophenyl)-N1-(4-chlorophenyl)-4-methoxypyrrolidine-1,2-dicarboxamide]
Ki (human plasma kallikrein): < 50 nM

NC(CCC1CC1)(c1ccncc1)c1ccc(F)c(NC(=O)[C@H]2C[C@](O)(c3ccccc3)CN2C(=O)Nc2ccc(Cl)cn2)c1 (stereo partly drawn) [Compound 39h, (2R,4S)-N2-(5-((+)-1-amino-3-cyclopropyl-1-(pyridin-4-yl)propyl)-2-fluorophenyl)-N1-(5-chloropyridin-2-yl)-4-hydroxy-4-phenylpyrrolidine-1,2-dicarboxamide]
Ki (human plasma kallikrein): < 50 nM

CO[C@@H]1C[C@H](C(=O)Nc2cc(C(N)(CCC3CC3)c3ccnc(C)c3)ccc2F)N(C(=O)Nc2ccc(Cl)cn2)C1 (stereo partly drawn) [Compound 46k, (2R,4R)-N2-(5-((+)-1-amino-3-cyclopropyl-1-(2-methylpyridin-4-yl)propyl)-2-fluorophenyl)-N1-(5-chloropyridin-2-yl)-4-methoxypyrrolidine-1,2-dicarboxamide]
Ki (human plasma kallikrein): < 50 nM

CO[C@]1(c2ccccc2)C[C@H](C(=O)Nc2cc(C(CCC3CC3)(N[S@@+]([O-])C(C)(C)C)c3ccccn3)ccc2F)N(C(=O)OC(C)(C)C)C1 (stereo partly drawn) [Compound 34b, (2R,4S)-tert-butyl-2-(5-((+)-3-cyclopropyl-1-((S)-1,1-dimethylethylsulfinamido)-1-(pyridin-2-yl)propyl)-2-fluorophenylcarbamoyl)-4-methoxy-4-phenylpyrrolidine-1-carboxylate]
Ki (human plasma kallikrein): > 100 nM

CO[C@@H]1C[C@@H](C(=O)Nc2cc(C(N)(CCC3CC3)c3cccc(C#N)c3)ccc2F)N(C(=O)N(C)c2ccc(Cl)cc2)C1 (stereo partly drawn) [Compound 6f, (2S,4R)-N2-(5-((+)-1-amino-1-(3-cyanophenyl)-3-cyclopropylpropyl)-2-fluorophenyl)-N1-(4-chlorophenyl)-4-methoxy-N1-methylpyrrolidine-1,2-dicarboxamide]
Ki (human plasma kallikrein): > 100 nM

COc1ccc(NC(=O)N2C[C@H](OC)C[C@@H]2C(=O)Nc2cc(C(N)(CCC3CC3)c3cccc(C#N)c3)ccc2F)cc1 (stereo partly drawn) [Compound 16b, (2R,4R)-N2-(5-((+)-1-amino-1-(3-cyanophenyl)-3-cyclopropylpropyl)-2-fluorophenyl)-4-methoxy-N1-(4-methoxyphenyl)pyrrolidine-1,2-dicarboxamide]
Ki (human plasma kallikrein): > 100 nM

CO[C@]1(C(F)(F)F)C[C@H](C(=O)Nc2cc(C(N)(CCC3CC3)c3ccncc3)ccc2F)N(C(=O)Nc2ccc(Cl)cn2)C1 (stereo partly drawn) [Compound 57d, (2R,4R)-N2-(5-((+)-1-amino-3-cyclopropyl-1-(pyridin-4-yl)propyl)-2-fluorophenyl)-N1-(5-chloropyridin-2-yl)-4-methoxy-4-(trifluoromethyl)pyrrolidine-1,2-dicarboxamide]
Ki (human plasma kallikrein): < 50 nM

N#Cc1ccc(C(N)(CCC2CC2)c2ccc(F)c(NC(=O)[C@H]3C[C@@H](O)CN3C(=O)Nc3ccc(Cl)cc3)c2)cc1 (stereo partly drawn) [Compound 63g, (2R,4R)-N2-(5-((+)-1-amino-1-(4-cyanophenyl)-3-cyclopropylpropyl)-2-fluorophenyl)-N1-(4-chlorophenyl)-4-hydroxypyrrolidine-1,2-dicarboxamide]
Ki (human plasma kallikrein): 50 to 100 nM

B1: C1-inhibitor: a physiological inhibitor (C1-inhibitor) (protein, UniProt P05155 23-500, looked up)
Plasma protease C1 inhibitor: NPNATSSSSQDPESLQDRGEGKVATTVISKMLFVEPILEVSSLPTTNSTTNSATKITANTTDEPTTQPTTEPTTQPTIQPTQPTTQLPTDSPTQPTTGSFCPGPVTLCSDLESHSTEAVLGDALVDFSLKLYHAFSAMKKVETNMAFSPFSIASLLTQVLLGAGENTKTNLESILSYPKDFTCVHQALKGFTTKGVTSVSQIFHSPDLAIRDTFVNASRTLYSSSPRVLSNNSDANLELINTWVAKNTNNKISRLLDSLPSDTRLVLLNAIYLSAKWKTTFDPKKTRMEPFHFKNSVIKVPMMNSKKYPVAHFIDQTLKAKVGQLQLSHNLSLVILVPQNLKHRLEDMEQALSPSVFKAIMEKLEMSKFQPTLLTLPRIKVTTSQDMLSIMEKLEFFDFSYDLNLCGLTEDPDLQVSAMQHQTVLELTETGVEAAAASAISVARTLLVFEVQQPFLFVLWDQQHKFPVFMGRVYDPRA
infarct size [3]: reduced infarct size
clinical outcome in sepsis patients (sepsis patients): Clinical improvement was observed
